row,melting point [°C],Structure (SMILES)
1,171 to 172,COc1ccc2c(c1)CC(CNC(=O)Nc1c(C(C)C)cccc1C(C)C)CC2 (configuration not stated)
2,225 to 230,COc1ccc2c(Cc3c(Cl)cncc3Cl)nnc(-c3nccs3)c2c1
3,212 to 214,Cc1cc2cc(N(C(=O)Nc3ccc(F)cc3F)c3ccccc3Cl)c(=O)oc2cc1C
4,292 to 296,Oc1ncnc2c(-c3ccc(Cc4ccc(Cl)cc4)cc3)cnn12
5,201,CC1(C)OC(=C(C#N)C#N)C(C#N)=C1c1ccc(C#C[Si](C)(C)C)cc1
6,110 to 111,COC(=O)c1ccc(CNC(C)=O)cc1
7,120 to 121,CON=C1CSc2cccc(Cl)c2CN1
8,241 to 242,COc1cc2ncnc(NS(=O)(=O)c3ccc(Br)cc3)c2cc1OC
9,219 to 221,Cn1cc(C(=O)NCc2ccc(Cl)cc2)c(=O)c2cc(CC3CCOCC3)ccc21
10,117 to 118,CCOC(=O)c1cn(C)nc1OCc1ccc(OCc2nc(-c3ccco3)oc2C)c(OC)c1
11,92 to 94,COc1cc(OCC(=O)O)c(C)cc1SCc1cccc(-c2cccc(OC(F)(F)F)c2)c1
12,154 to 156,COc1ccc(CN2CCN(NC(=O)c3cc(Cl)c(N)cc3OC)CC2)cc1
13,93.9,Cc1ccc(C=CC#N)cc1C
14,81 to 83,Cc1ccc(S(=O)(=O)N2CCN([C@H](C)[C@](O)(Cn3cncn3)c3ccc(F)cc3F)CC2)cc1
15,155 to 156,COc1cccc(COCCCn2ccnc2)c1NC(=O)CC1c2ccccc2Oc2ccccc21
16,55 to 56,CC(C)(C)COc1ccc(N)cc1C#N
17,180 to 184,COc1ccc(Cl)cc1S(=O)(=O)Nc1onc(C)c1Br
18,284 to 286,Cc1nc2c3cccc(Cl)c3ccn2c1CC(N)=O
19,142 to 144,CNc1cn(-c2cncc(F)c2)nc1C

row,melting point [°C],Structure (SMILES)
1,230 to 232,COc1ccc(-n2cnc(-c3cccc(C(=O)O)c3)n2)cc1
2,79 to 81,CCOC(=O)C(=NOC)c1nnc(C)s1
3,163 to 164,CCOC(=O)c1ccc(N=C(Nc2ccc(C(=O)OCC)cc2)c2ccccc2OC)cc1
4,> 250,CCCn1c(COCC)nc2c(N)nc3cc(O)ccc3c21
5,> 250,CSc1nn2c(N)cc(C)nc2c1S(=O)(=O)c1ccccc1C
6,166 to 168,COc1ccc(CNc2nc(N(C)CCO)ncc2C(=O)c2cc(OC)c(OC)c(OC)c2)cc1Cl
7,130,CCOC(=O)C1=C(N)NC(N)=C(C(=O)OCC)C1c1cc([N+](=O)[O-])ccc1Cl
8,187 to 189,CCOCc1nc2c(N)nc3ccccc3c2n1CC(C)(C)OCCS(=O)(=O)c1ccccc1
9,118 to 119,CN(CCO)Cc1cc(C(=O)c2ccccc2)cc(C(C)(C)C)c1O
10,145 to 146,Cc1cccc(NC(=O)c2ccccc2C)c1
11,108,COC(=O)CCCc1cc2nc(Cl)ccc2n1S(=O)(=O)c1ccc(Cl)cc1
12,193 to 194,COc1ccc2c(-c3ccc(Cl)cc3F)noc2c1Cl
13,97 to 98,c1cc(CCCCn2ccnc2)cc(OCc2ccc3oc(-c4cccs4)nc3c2)c1
14,123 to 124,CC(C)CCOc1c(-c2ccc(S(N)(=O)=O)cc2)cnn(CC(F)(F)F)c1=O
15,100 to 102,COc1ccccc1-c1ccc(C[C@H](NC(=O)c2c(Cl)cccc2Cl)C(=O)O)cc1OC
16,106 to 108,CCN(c1nc(C)cc(C)n1)c1ccc(CC=NOC)cc1SC
17,165 to 167,CCN(CC)CCOc1nc2ccccc2n(-c2ccc(Cl)cc2)c1=O
18,128 to 130,CCNCN1CN=C(c2ccc(OC)c(OC)c2)c2cc(OC)c(OC)cc21

# The remaining lines, values behind:
row,Structure (SMILES),melting point [°C]
1,COc1ccc(C=Cc2cc(OC)cc(OC)c2)cc1,55 to 56
2,CCN1CCN(C(=O)OC2C3=C(SCCS3)C(=O)N2c2ccc(Cl)cn2)CC1 (configuration not stated),140
3,O=C(C=Cc1cccnc1)NCCCCC1CCN(Cc2ccccc2)CC1,88 to 90
4,c1cnc2cccn2c1,230 to 231
5,COc1ccc(C2=CS(=O)CCC2)cc1OC1CCCC1 (configuration not stated),96 to 98
6,N=C(NCCCn1cc(C2=CC(=O)NC2=O)c2ccccc21)c1ccc(O)cc1,> 300
7,CC1CN(c2c(F)cc3c(=O)c(C(=O)O)cn(C4CC4)c3c2C#N)CCN1 (configuration not stated),> 300
8,Cc1cc(C(=O)N2Cc3cccn3Cc3ccccc32)ccc1C1=CCC2CCC1C2 (configuration not stated),168 to 169
9,ClCc1ccc(-c2ccccc2)cn1,73
10,CCCc1c(OCCCCCOc2ccc3nc(CCC(=O)O)ccc3c2CCC(=O)O)ccc2c1OCCC2=O,123 to 128
11,C[C@@H]1CN(c2ccc(N/C=C3\C(=O)NC(=O)c4ccc(-c5ccoc5)cc43)cc2)C[C@H](C)N1C,204 to 205
12,O=C1c2ccccc2C(=O)N1Cc1ccccc1[N+](=O)[O-],190 to 209
13,CC(=O)ON=C(O)c1cc(C(O)=NCCO)c(C(=O)O)cc1C(=O)O,194 to 195
14,O=C(O)C(CBr)N(C(=O)c1ccccc1)N1C(=O)CCC1=O (configuration not stated),174 to 177
15,Cc1cccc(C2=CCN(CCCCCC(=O)N3Cc4ccccc4C3)CC2)c1C#N,71
16,Cc1ccc(-c2[nH]c(-c3ccccc3)nc2C(=O)Nc2nc3ccccc3s2)cc1,269 to 270
17,COC(=O)C1CC(C#N)(c2ccc(OC)c3c2OCCO3)CCC1=O (configuration not stated),129 to 132
18,NS(=O)(=O)c1ccc(-c2[nH]c3ccccc3c2-c2ccc(Br)cc2)cc1,277 to 279

row,Structure (SMILES),melting point [°C]
1,Nc1c(-c2ccc(Cl)cc2)sc2ccccc12,152 to 154
2,c1ccc(-c2ccc(CCN3CCN(c4ccccc4)CC3)s2)cc1,124
3,CC(C)Nc1cccc(C2CN3CCSC3=N2)c1 (configuration not stated),47 to 51
4,CCOCC1COc2c(cc3ncc(C(=O)O)c(O)c3c2Cl)O1 (configuration not stated),266 to 267
5,COc1ccc(C(=O)Nc2ccc(C(=O)Cl)c3ccccc23)cc1OC,167 to 171
6,Cc1c(N2CC[C@@H](C3(NCCO)CC3)C2)c(F)cc2c(=O)c(C(=O)O)cn([C@@H]3C[C@@H]3F)c12,168 to 170
7,C#CCn1c(C)c(CO)sc1=O,62
8,N#CNC=Nc1ccc(-c2c[nH]cn2)cc1,234 to 235
9,CC(C(=O)O)N1CCNC(C(=O)O)C1 (configuration not stated),173 to 174
10,Fc1cc(Cl)c2nc(Cl)sc2c1N=C=S,80 to 81
11,CC1(C)Oc2c(c(=O)n(Cc3ccccc3)c3ccccc23)[C@@H](N2CCCC2=O)[C@@H]1O (relative stereo),> 260
12,Oc1ccc(-c2cnccn2)cc1,216 to 217
13,N#Cc1ccc(C=Nc2c3c(nc4ccccc24)CCCC3)cc1,204 to 205
14,N#CCCNC(=O)C1=CC(CF)(CF)Oc2ccc(C(F)(F)C(F)(F)C(F)(F)C(F)(F)F)cc21,85 to 86
15,CCOc1ccc(C=CC(=O)N2CCc3c([nH]c4ccccc34)C2c2ccc3c(c2)OCO3)cc1 (configuration not stated),199 to 200
16,O=C(Oc1ccccc1)N1Cc2ccccc2C(c2ccccc2Cl)c2ccccc21 (configuration not stated),95 to 99
17,COc1ncncc1[N+](=O)[O-],193 to 195

# — a melting point compilation (Tetko et al.; mined from patent text by program, amines drawn as free bases though some values may be those of a salt)
